# Experimental data: patent publication US3984410A, “Isourea acetylphosphate insecticides” (priority 1975, dated 1976)
# Key:
# Format in all cases: in vivo
# [1] = test system: Southern House Mosquito [Culex pipiens quinquefasciatus (Say)]; assay: Southern House Mosquito larvae in aqueous solution; settings: 48 h, read-out: Insecticide Activity - Approximate LD50, MOS (Southern House Mosquito)
# Experimental: Insecticidal activity is determined using third-instar larvae of the mosquito (Culex pipiens quinquefasciatus). Ten larvae are placed in a 6-ounce, number 67 Dixie wax paper cup containing 100 ml of an aqueous solution of the test chemical. The treated larvae are stored at 70°F, and 48 hours later the mortality is recorded. Test concentrations range from 0.5 PPM down to that at which approximately 50% mortality occurs.
# [2] = test system: Black Bean Aphid [Aphis fabae (Scop.)]; assay: Systemic Assay on Black Bean Aphid; settings: 168 h, systemic, chemical in soil, mortality after 7 days, read-out: Insecticide Activity - Approximate LD50, BAS (Black Bean Aphid - systemic)
# Experimental: Test chemicals are diluted in acetone and aliquots are thoroughly mixed into 500 grams of dry, sandy loam soil. The treated soil is placed in a pint ice cream carton and a nasturtium plant (Tropaeolum sp.) approximately 5 cm tall is transplanted into each carton. The plants are then infested with approximately 25 black bean aphids of mixed ages and placed in the greenhouse. Seven days later mortality is recorded. Test concentrations range from 10 PPM down to that at which approximately 50% mortality occurs.
# [3] = test system: Black Bean Aphid [Aphis fabae (Scop.)]; assay: Direct Spray Assay on Black Bean Aphid; settings: direct spray on nasturtium plants; mortality after 7 days
# Experimental: Nasturtium plants (Tropaeolum sp.), approximately 5 cm tall, are transplanted into sandy loam soil in 3-inch clay pots and infested with 25-50 black bean aphids of mixed ages. Twenty-four hours later they are sprayed, to the point of runoff, with 50--50 acetone-water solutions of the test chemicals. Treated plants are held in the greenhouse and mortality is recorded after 7 days. Test concentrations range from 0.05% down to that at which 50% mortality occurs.
# [4] = test system: Cabbage Looper [Trichoplusia ni (Hubner)]; assay: Cabbage Looper on dipped squash cotyledons; settings: second-instar larvae, cotyledon dip; 48 hours plus 5 days
# Experimental: (§1) Test compounds are diluted in a 50--50 acetone-water solution. Cotyledons of hyzini squash (Calabacita abobrinha), approximately 1 × 1.5 inches, are immersed in the test solutions for 2-3 seconds and placed on a wire screen to dry. The dried leaves are placed in petri dishes containing a moistened piece of filter paper and infested with five second-instar cabbage looper larvae. Mortality of the larvae is recorded 48 hours later, and a piece of synthetic media is added to dishes containing survivors. These are then held for 5 additional days to observe for any delayed effects of the test chemicals. Test concentrations range from 0.1% down to that at which approximately 50% mortality occurs.
# [5] = test system: Lygus Bug [Lygus hesperus (Knight)]; assay: Lygus Bug spray; settings: spray on adult bugs; mortality after 48 hours
# Experimental: Test compounds are in a 50--50 acetone-water solution. Two cc of the solutions are sprayed through a Devilbiss type EGA hand spray gun into circular cardboard cages containing one string bean pod and ten adult lygus bugs. The test cages are covered on the bottom with cellophane and the top with tulle netting. Percent mortality is recorded 48 hours later. Test concentrations range from 0.05% down to that at which approximately 50% mortality occurs.
# [6] = test system: Tobacco Budworm [Heliothis virescens (F.)]; assay: Tobacco Budworm on dipped Romaine lettuce leaves; settings: larvae, Romaine lettuce leaf dip; 48 hours plus 5 days
# Experimental: as §1
# The procedure is the same as that used for the cabbage looper, except that sections of Romaine lettuce (Latica sativa) leaves were used instead of cotyledons of hyzini squash.
# [7] = test system: housefly (Musca domestica L.); assay: Housefly mortality, residue on aluminum dishes; settings: 25 3-day old female houseflies; mortality after 48 hours
# Experimental: Test compounds are diluted in acetone and aliquots are pipetted onto the bottom of 55 × 15 mm aluminum dishes. To insure even spreading of the chemical on the bottom of the dishes, 1 ml of acetone containing 0.02% peanut oil is also added to each dish. After all solvents have evaporated the dishes are placed in circular cardboard cages containing 25 3-day old female houseflies. The cages are covered on the bottom with cellophane and the top with tulle netting, and each contains a sugar-water saturated cotton plug for maintenance of the flies. Mortality is recorded after 48 hours. Test levels range from 100 μg/25 F. houseflies down to that at which approximately 50% mortality occurs.
# [8] = test system: German Cockroach [Blattella germanica (Linne)]; assay: German Cockroach spray; settings: spray on 1-month-old nymphs; mortality after 7 days
# Experimental: Test compounds are diluted in a 50--50 acetone-water solution. Two cc of the solutions are sprayed through a DeVilbiss type EGA hand spray gun into circular cardboard cages containing 10 l-month-old German cockroach nymphs. The test cages are covered on the bottom with cellophane and the top with tulle netting. Percent mortality is recorded 7 days later. Test concentrations range from 0.1% down to that at which approximately 50% mortality occurs.
# [9] = test system: Green Peach Aphid [Myzus persicae (Sulzer)]; assay: Green Peach Aphid spray on radish plants; settings: sprayed to runoff on radish plants; mortality after 48 hours
# Experimental: Radish plants (Rhaphanus sativus), approximately 2 cm tall, are transplanted into sandy loam soil in 3-inch clay pots and infested with 25-50 green peach aphids of mixed ages. Twenty-four hours later they are sprayed, to the point of runoff, with 50--50 acetone-water solutions of the test chemicals. Treated plants are held in the greenhouse and mortality is recorded after 48 hours. Test concentrations range from 0.05% down to that at which 50% mortality occurs.
smiles,measurement,setting,value
CCN(C(=NC(=O)CSP(=S)(OC)OC)OC)c1cccc(C)c1 [Compound 19],LC50,[1],> 1 µg/mL
same,LC50,[2],> 10 µg/mL
same,"Insecticide Activity - Approximate LD50, BA (Black Bean Aphid - direct spray)",[3],.002%
same,"Insecticide Activity - Approximate LD50, CL (Cabbage Looper)",[4],> .1%
same,"Insecticide Activity - Approximate LD50, LB (Lygus Bug)",[5],> .05%
same,"Insecticide Activity - Approximate LD50, TBW (Tobacco Budworm)",[6],> .1%
same,"Insecticide Activity - Approximate LD50, HF (Housefly)",[7],62 μg/25 F.
same,"Insecticide Activity - Approximate LD50, GR (German Cockroach)",[8],> .1%
same,"Insecticide Activity - Approximate LD50, GPA (Green Peach Aphid)",[9],.03%
